# Measurements: patent publication US20260274833A1 (NiKang Therapeutics, Inc., priority 2022, published 2026)
# Target: T1, CDK2 (Homo sapiens, UniProt P24941)
# T1 construct: endogenous in cells; host or cells: OVCAR3 cells
# Assay: Phospho-RB measurement in OVCAR3 cells (HTRF phospho-RB cellular kit)
# Format: cell-based
# Conditions: inhibition of RB phosphorylation at S807/811 (HTRF, TR-FRET ratio 665/620), 24 h compound treatment, 0.3 to 10,000 nM
# Experimental: Biological Example 1: Phospho-RB Measurement in OVCAR3 Cells
# The ability of compounds of Formula (I) to inhibit CDK2 was determined in OVCAR3 cells by measuring inhibition of phosphorylation of RB protein at S780 and S807/811. Phosphorylation of RB protein at S807/811 were measured using HTRF phospho-RB cellular kits (Cat #64RBS807PEG) from Cisbio.
# On Day 1, OVCAR3 cells were seeded into 96-well tissue-culture treated plates at 20,000 cells/well in 200 μL and incubated overnight at 37° C. in CO2 atmosphere. On Day 2, the cells were treated with test compounds at concentrations from 0.3 to 10,000 nM using HP D300 digital dispenser. Twenty-four hours after compound treatment, cell culture media was removed by flicking the plate and tapping the plate against clean paper towel. Immediately 30 μL 1× lysis buffer was supplemented from the kit and the plate was incubated at room temperature on shaker for 30 min. After homogenization by pipetting up and down, 8 μL cell lysate from 96-well cell culture plate was transferred to 384-well small volume white detection plate. 2 μL premixed detection solution was added and the plate was covered with sealer. To prepare the detection solution, d2 conjugated-phospho-RB antibody and Eu-cryptate conjugated phosphor-RB antibody were diluted into detection buffer following manufacturer's instruction.
# Detection plates were incubated for 4 h at room temperature and read on ClarioStar (BMG Labtech) in TR-FRET mode ([…]). The TR-FRET ratio (665 nM/620 nM) was plotted against the compound concentration and normalized to DMSO controls. Half maximal inhibition concentration (IC50) values are calculated with a four-parameter logistic fit using GraphPad Prism (version 8; La Jolla, CA).
row,IC50 [nM],SMILES
1,75.5,"COc1cccc2c1CN(S(=O)(=O)Nc1cccc(-c3nc(C4(C)CCOCC4)sc3-c3ccnc(NC4CC5(C4)CS(=O)(=O)C5)n3)c1F)C2 [Example 2, N-(3-(5-(2-((2,2-dioxido-2-thiaspiro-[3.3]-heptan-6-yl)amino)pyrimidin-4-yl)-2-(4-methyltetrahydro-2H-pyran-4-yl)-thiazol-4-yl)-2-fluorophenyl)-4-methoxyisoindoline-2-sulfonamide]"
2,48.6,"CC1(c2nc(-c3cccc(NS(=O)(=O)N4Cc5cccc(C(F)(F)F)c5C4)c3F)c(-c3ccnc(NC4CC5(C4)CS(=O)(=O)C5)n3)s2)CCOCC1 [Example 3, N-(3-(5-(2-((2,2-dioxido-2-thiaspiro-[3.3]-heptan-6-yl)amino)pyrimidin-4-yl)-2-(4-methyltetrahydro-2H-pyran-4-yl)thiazol-4-yl)-2-fluorophenyl)-4-(trifluoromethyl) isoindoline-2-sulfonamide]"
3,138,"O=S1(=O)CC2(CC(Nc3nccc(-c4sc(N5C6CCC5COC6)nc4-c4cccc(NS(=O)(=O)N5Cc6ccccc6C5)c4F)n3)C2)C1 [Example 4, N-(3-(2-(3-oxa-8-azabicyclo[3.2.1]octan-8-yl)-5-(2-((2,2-dioxido-2-thiaspiro-[3.3]heptan-6-yl)amino)pyrimidin-4-yl)thiazol-4-yl)-2-fluorophenyl)-isoindoline-2-sulfonamide]"
4,32.7,"CC1(c2nc(-c3cccc(NS(=O)(=O)N4CCc5ccc(C#N)cc54)c3F)c(-c3ccnc(NC4CC5(C4)CS(=O)(=O)C5)n3)s2)CCOCC1 [Example 5, 6-cyano-N-(3-(5-(2-((2,2-dioxido-2-thiaspiro-[3.3]heptan-6-yl)amino)-pyrimidin-4-yl)-2-(4-methyltetrahydro-2H-pyran-4-yl)thiazol-4-yl)-2-fluorophenyl) indoline-1-sulfonamide]"
5,109,"N#Cc1ccc2c(c1)N(S(=O)(=O)Nc1cccc(-c3nc(N4C5CCC4COC5)sc3-c3ccnc(NC4CC5(C4)CS(=O)(=O)C5)n3)c1F)CC2 [Example 6, N-(3-(2-(3-oxa-8-azabicyclo[3.2.1]octan-8-yl)-5-(2-((2,2-dioxido-2-thiaspiro-[3.3]heptan-6-yl)amino)pyrimidin-4-yl)thiazol-4-yl)-2-fluorophenyl)-6-cyanoindoline-1-sulfonamide]"
6,9.2,"COc1cccc2c1CN(S(=O)(=O)Nc1cccc(-c3nc(C4(C)CCOCC4)sc3-c3ccnc(N[C@H]4[C@@H]5CS(=O)(=O)C[C@@H]54)n3)c1F)C2 [Example 7, N-(3-(5-(2-(((1R, 5S,6r)-3,3-dioxido-3-thiabicyclo[3.1.0]hexan-6-yl)amino)-pyrimidin-4-yl)-2-(4-methyltetrahydro-2H-pyran-4-yl)thiazol-4-yl)-2-fluorophenyl)-4-methoxyisoindoline-2-sulfonamide]"
7,15.2,"CC1(c2nc(-c3cccc(NS(=O)(=O)N4Cc5cccc(C(F)(F)F)c5C4)c3F)c(-c3ccnc(N[C@H]4[C@@H]5CS(=O)(=O)C[C@@H]54)n3)s2)CCOCC1 [Example 8, N-(3-(5-(2-(((1R,5S, 6r)-3,3-dioxido-3-thiabicyclo[3.1.0]hexan-6-yl)amino)-pyrimidin-4-yl)-2-(4-methyltetrahydro-2H-pyran-4-yl)thiazol-4-yl)-2-fluorophenyl)-4-(trifluoromethyl)-isoindoline-2-sulfonamide]"
8,104,"N#Cc1ccc2c(c1)N(S(=O)(=O)Nc1cccc(-c3nc(C45CC(C4)C5)sc3-c3ccnc(NC4CC5(C4)CS(=O)(=O)C5)n3)c1F)CC2 [Example 9, N-(3-(2-(bicyclo [1.1.1]pentan-1-yl)-5-(2-((2,2-dioxido-2-thiaspiro[3.3]heptan-6-yl)amino)-pyrimidin-4-yl)thiazol-4-yl)-2-fluorophenyl)-6-cyanoindoline-1-sulfonamide]"
9,73,CC1(c2nc(-c3cccc(NS(=O)(=O)N4CCc5ccc(C#N)cc54)c3F)c(-c3ccnc(N[C@H]4[C@@H]5CS(=O)(=O)C[C@@H]54)n3)s2)CCOCC1 [Example 10]
10,81,"O=S1(=O)C[C@@H]2[C@H](C1)[C@H]2Nc1nccc(-c2sc(C34CC(C3)C4)nc2-c2cccc(NS(=O)(=O)N3Cc4ccc(CO)cc4C3)c2F)n1 [Example 11, N-(3-(2-(bicyclo [1.1.1]pentan-1-yl)-5-(2-(((1R,5S,6r)-3,3-dioxido-3-thiabicyclo-[3.1.0]hexan-6-yl)amino)pyrimidin-4-yl)thiazol-4-yl)-2-fluorophenyl)-5-(hydroxymethyl) isoindoline-2-sulfonamide]"
11,47.8,"CC1(c2nc(-c3cccc(NS(=O)(=O)N4Cc5ccc(CO)cc5C4)c3F)c(-c3ccnc(N[C@H]4[C@@H]5CS(=O)(=O)C[C@@H]54)n3)s2)CCOCC1 [Example 12, N-(3-(5-(2-(((1R, 5S,6r)-3,3-dioxido-3-thiabicyclo[3.1.0]hexan-6-yl)amino)-pyrimidin-4-yl)-2-(4-methyltetrahydro-2H-pyran-4-yl)thiazol-4-yl)-2-fluorophenyl)-5-(hydroxymethyl)-isoindoline-2-sulfonamide]"
12,57.7,"O=S1(=O)C[C@@H]2[C@H](C1)[C@H]2Nc1nccc(-c2sc(C34CC(C3)C4)nc2-c2cccc(NS(=O)(=O)N3CCc4c(CO)cccc43)c2F)n1 [Example 13, N-(3-(2-(bicyclo [1.1.1]pentan-1-yl)-5-(2-(((1R,5S,6r)-3,3-dioxido-3-thia-bicyclo[3.1.0]-hexan-6-yl)amino)-pyrimidin-4-yl)thiazol-4-yl)-2-fluorophenyl)-4-(hydroxymethyl)-indoline-1-sulfonamide]"
13,124,"N#Cc1ccc2c(c1)N(S(=O)(=O)Nc1cccc(-c3nc(C45CC(C4)C5)sc3-c3ccnc(N[C@H]4[C@@H]5CS(=O)(=O)C[C@@H]54)n3)c1F)CC2 [Example 14, N-(3-(2-(bicyclo [1.1.1]pentan-1-yl)-5-(2-(((1R,5S,6r)-3,3-dioxido-3-thiabicyclo-[3.1.0]-hexan-6-yl)amino)pyrimidin-4-yl)thiazol-4-yl)-2-fluorophenyl)-6-cyanoindoline-1-sulfonamide]"
14,72.5,"CN1CC2CCC(C1)N2c1nc(-c2cccc(NS(=O)(=O)N3Cc4ccccc4C3)c2F)c(-c2ccnc(NC3CC4(C3)CS(=O)(=O)C4)n2)s1 [Example 15, N-(3-(5-(2-((2,2-dioxido-2-thiaspiro-[3.3]-heptan-6-yl)amino)pyrimidin-4-yl)-2-(3-methyl-3,8-diazabicyclo[3.2.1]-octan-8-yl)thiazol-4-yl)-2-fluorophenyl)-isoindoline-2-sulfonamide]"
15,62.4,"CN1CC2CCC(C1)N2c1nc(-c2cccc(NS(=O)(=O)N3CCc4ccc(C#N)cc43)c2F)c(-c2ccnc(NC3CC4(C3)CS(=O)(=O)C4)n2)s1 [Example 16, 6-cyano-N-(3-(5-(2-((2,2-dioxido-2-thiaspiro[3.3]heptan-6-yl)amino)-pyrimidin-4-yl)-2-(3-methyl-3,8-diazabicyclo[3.2.1]octan-8-yl)thiazol-4-yl)-2-fluorophenyl) indoline-1-sulfonamide]"
16,15,"CN1CC2CCC(C1)N2c1nc(-c2cccc(NS(=O)(=O)N3CCc4ccccc43)c2F)c(-c2ccnc(NC3CC4(C3)CS(=O)(=O)C4)n2)s1 [Example 17, N-(3-(5-(2-((2,2-dioxido-2-thiaspiro-[3.3]-heptan-6-yl)amino)pyrimidin-4-yl)-2-(3-methyl-3,8-diazabicyclo[3.2.1]-octan-8-yl)thiazol-4-yl)-2-fluorophenyl)-indoline-1-sulfonamide]"
17,24.8,"CN1CC2CCC(C1)N2c1nc(-c2cccc(NS(=O)(=O)N3Cc4cccc(C(F)F)c4C3)c2F)c(-c2ccnc(NC3CC4(C3)CS(=O)(=O)C4)n2)s1 [Example 18, 4-(difluoromethyl)-N-(3-(5-(2-((2,2-dioxido-2-thiaspiro [3.3]heptan-6-yl)amino)pyrimidin-4-yl)-2-(3-methyl-3,8-diazabicyclo [3.2.1]octan-8-yl)thiazol-4-yl)-2-fluorophenyl)-isoindoline-2-sulfonamide]"
18,120,"O=S1(=O)CC2(CC(Nc3nccc(-c4sc(C56CC(C5)C6)nc4-c4cccc(NS(=O)(=O)N5CCc6ccc(C(F)(F)F)cc65)c4F)n3)C2)C1 [Example 19, N-(3-(2-(bicyclo [1.1.1]pentan-1-yl)-5-(2-((2,2-dioxido-2-thiaspiro[3.3]heptan-6-yl)amino)-pyrimidin-4-yl)thiazol-4-yl)-2-fluorophenyl)-6-(trifluoromethyl)-indoline-1-sulfonamide]"
19,208,"COc1ccc2c(c1)N(S(=O)(=O)Nc1cccc(-c3nc(C45CC(C4)C5)sc3-c3ccnc(NC4CC5(C4)CS(=O)(=O)C5)n3)c1F)CC2 [Example 20, N-(3-(2-(bicyclo [1.1.1]pentan-1-yl)-5-(2-((2,2-dioxido-2-thiaspiro[3.3]heptan-6-yl)amino)-pyrimidin-4-yl)thiazol-4-yl)-2-fluorophenyl)-6-methoxyindoline-1-sulfonamide]"
